The test system of one data set is EMT-6 xenografts. The data set is described as follows: Mouse PK/Efficacy model from EMT-6 xenograft efficacy results. The format is in vivo. The protocol: Experiments were also conducted to determine the efficacy of the anti-PD-L1/TGFβ Trap molecule in a tumor model. Efficacy results from EMT-6 xenografts were used to establish the PK/Efficacy model.
The model predictions are able to capture the tumor volume distributions. Conditional weighted residuals are normally distributed with a 0 mean and 1 variance without a trend. The PK/Efficacy model was then used to simulate tumor growth inhibition (TGI) using the human predicted concentration-time profiles at different doses.

In a further data set the test system is advanced NSCLC. Put plainly: Clinical study in 2L NSCLC, q2w dosing: response per RECIST v1.1. The format is in vivo, human.
The next data set has as its system PD-L1 and TGFβ. Put plainly: Two-step ELISA, simultaneous binding. In general terms: In an ELISA, binding on a coated surface is turned into a signal by an enzyme label.
For data set [1], the system named is PD-L1 and TGFβ dependent signaling. The data set is described as follows: Inhibition of PD-L1 and TGFβ dependent signaling in vitro. The format is cell-based.
The subject of the next data set is mouse tumor models. The data set is described as follows: Antitumor activity in mouse tumor models. Type of data set: in vivo.
The test system of data set [2] is advanced malignant melanoma or renal cell carcinoma. As to conditions: cited from earlier work.
A further data set deals with melanoma. The conditions noted are these: Phase I; cited from earlier work.
The target in the next data set is TGFβ1 (Homo sapiens, UniProt P01137). As to conditions: binding of TGFβ1; cited from earlier work.
Chain of TGFβ1 (P01137 279-390 limits assumed, species assumed): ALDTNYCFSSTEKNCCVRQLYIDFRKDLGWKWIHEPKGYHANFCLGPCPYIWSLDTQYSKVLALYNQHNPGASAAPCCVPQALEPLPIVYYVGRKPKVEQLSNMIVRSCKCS
The subject of data set [3] is scarring after eye surgery. As to conditions: Phase 3; cited from earlier work.
[4] abbreviates: PK/Efficacy model parameter estimate, EMT-6 xenograft mice.
Setting [5] is: PD-L1 high (≥80%) pts, 500 mg q2w.
[6] abbreviates: PD-L1 high (≥80%) pts, 1200 mg q2w.

For “anti-PD-L1/TGFβ Trap: bi-functional fusion protein: anti-PD-L1 antibody heavy chains fused via glycine-serine linker to extracellular domain of human TGFβRII; SEQ ID NO: 3 and 1”, the KC50 in the data set on EMT-6 xenografts (setting [4]) is given as 55324.6 ng/mL. Also, the Kmax in the data set on EMT-6 xenografts (setting [4]) is recorded as 2. Further, in the data set on EMT-6 xenografts (estimated, EMT-6 xenografts), the “KC50 (average plasma concentration for 50% of the maximal anti-tumor activity)” value was 55.3 µg/mL. The “ORR, %” value in the data set with advanced NSCLC (All patients, 500 mg q2w) came out at 20.0%; with advanced NSCLC (All patients, 1200 mg q2w), 27.5%; in the data set on advanced NSCLC (All patients, Total (both doses)) it was 23.8%; with advanced NSCLC (PD-L1+ (≥1%) pts, 500 mg q2w) it was 19.4%; in the data set with advanced NSCLC (PD-L1+ (≥1%) pts, 1200 mg q2w) it was 40.7%; in the data set on advanced NSCLC (PD-L1+ (≥1%) pts, Total), 29.3%. In addition, the “ORR, %” value with advanced NSCLC (setting [5]) amounted to 33.3%; in the data set on advanced NSCLC (setting [6]), 85.7%; in the data set on advanced NSCLC (PD-L1 high (≥80%) pts, Total) it was 62.0%. Also, the “ORR, n (responders/patients)” value in the data set with advanced NSCLC (All patients, 500 mg q2w) was 8/40; in the data set on advanced NSCLC (All patients, 1200 mg q2w), 11/40; in the data set on advanced NSCLC (All patients, Total), 19/80; in the data set with advanced NSCLC (PD-L1+ (≥1%) pts, 500 mg q2w) it was 6/31; in the data set with advanced NSCLC (PD-L1+ (≥1%) pts, 1200 mg q2w), 11/27; in the data set with advanced NSCLC (PD-L1+ (≥1%) pts, Total) it was 17/58. The “ORR, n (responders/patients)” value is recorded as 2/6 in the data set with advanced NSCLC (setting [5]); 6/7 with advanced NSCLC (setting [6]); 8/13 with advanced NSCLC (PD-L1 high (≥80%) pts, Total). For the same molecule, the “partial responses (PR)” value in the data set on advanced NSCLC (across both dose levels (500 mg and 1200 mg q2w), 80 patients) amounted to 18. Further, the “complete response (CR)” value in the data set on advanced NSCLC (at 1200 mg q2w) was 1. The “simultaneous binding to PD-L1 and TGFβ” value was “simultaneously binds to both PD-L1 and TGFβ” with PD-L1 and TGFβ (FIG. 2); “simultaneously bound to both PD-L1 and TGFβ” with PD-L1 and TGFβ (FIG. 2, listed as protein of the present disclosure). Further, the “PD-L1 and TGFβ dependent signaling” value in [1] was “inhibited”. Moreover, the “antitumor activity and survival versus anti PD-L1 antibody avelumab or TGFβ Trap control alone” value in the data set on mouse tumor models (mouse tumor models, preclinical data) was “strongly enhances antitumor activity and prolongs survival”. The antitumor activity entry with mouse tumor models (variety of mouse models) was “potent antitumor activity”.

Turning to “GC1008: a human antibody specific for all isoforms of TGFβ”, the clinical efficacy entry in [2] (Phase I/II, patients) is recorded as “only limited clinical efficacy”. Moreover, the safety entry in data set [2] (in vivo) was “safe and well tolerated”.

“fresolimumab: monoclonal antibody targeting TGFβ1, 2 and 3”: in the data set on melanoma, the tumor response entry is “initial evidence of tumor response”.

B1: recombinant soluble TGFβRII: recombinant soluble extracellular domain of TGFβRII (protein, UniProt P37173 23-166, looked up)
extracellular domain: TIPPHVQKSVNNDMIVTDNNGAVKFPQLCKFCDVRFSTCDNQKSCMSNCSITSICEKPQEVCVAVWRKNDENITLETVCHDPKLPYHDFILEDAASPKCIMKEKKKPGETFFMCSCSSDECNDNIIFSEEYNTSNPDLLLVIFQ
modifications: extracellular domain
Turning to B1, the Kd (in general, the equilibrium constant for the complex coming apart) with TGFβ1 is 0.2 nM.

B2: Lerdelimumab: an antibody specific for TGFβ2 (antibody, chains of the INN, looked up, V domains shown)
VH: EVQLVESGGGVVQPGRSLRLSCAASGFTFSSYGMHWVRQAPGKGLEWVAVIWYDGSNKYYADSVKGRFTISRDNSKNTLYLQMDSLRAEDTAVYYCGRTLESSLWGQGTLVTVSS
VL: SSELTQDPAVSVALGQTVRITCQGDSLRSYYASWYQQKPGQAPVLVIYGKNNRPSGIPDRFSGSSSGNTASLTITGAQAEDEADYYCNSRDSSSTHRGVFGGGTKLTVL
In the case of B2, the “safety and efficacy at improving scarring” value in data set [3] is listed as “safe but ineffective”.

The record behind these values is US20210115145A1, “COMBINATION THERAPY WITH TARGETED TGF-B INHIBITION FOR TREATMENT OF ADVANCED NON-SMALL CELL LUNG CANCER” (Merck Patent GmbH, priority 2018, published 2021).
